In paper PMC9986241 (Signal Transduction and Targeted Therapy, 2023):

Key:
Assay in all cases: KinaseProfiler enzyme profiling
Format in all cases: biochemical
Flt1(h) = molecular target: T1, Flt1(h) (Homo sapiens, UniProt P17948); conditions: 100 nM
T1 construct: purchased Eurofins KinaseProfiler
Description: (§1) Enzyme profiling services were provided by KinaseProfiler™ (Eurofin, Brussels, Belgium). The concentration of erianin was 100 nM, and total 70 kinases were tested in this in vitro screening and profiling services (2 repetitions). For more details, refer to the manufacturer’s instructions (www.eurofinsdiscoveryservices.com).

eEF-2K(h) = molecular target: T2, eEF-2K(h) (Homo sapiens, UniProt O00418); conditions: 100 nM
T2 construct: purchased Eurofins KinaseProfiler
Description: as §1

CDK5/p25(h) = molecular target: T3, CDK5/p25(h) (Homo sapiens, UniProt Q00535); conditions: 100 nM
T3 construct: purchased Eurofins KinaseProfiler
Description: as §1

Rsk1(h) = molecular target: T4, Rsk1(h) (Homo sapiens, UniProt Q15418)
T4 construct: purchased Eurofins KinaseProfiler
Description: as §1

EphB3(h) = molecular target: T5, EphB3(h) (Homo sapiens, UniProt P54753); conditions: 100 nM
T5 construct: purchased Eurofins KinaseProfiler
Description: as §1

EphB1(h) = molecular target: T6, EphB1(h) (Homo sapiens, UniProt P54762); conditions: 100 nM
T6 construct: purchased Eurofins KinaseProfiler
Description: as §1

CaMKIIδ(h) = molecular target: T7, CaMKIIδ(h) (Homo sapiens, UniProt Q13557); conditions: 100 nM
T7 construct: purchased Eurofins KinaseProfiler
Description: as §1

Wee1(h) = molecular target: T8, Wee1(h) (Homo sapiens, UniProt P30291); conditions: 100 nM
T8 construct: purchased Eurofins KinaseProfiler
Description: as §1

EphA5(h) = molecular target: T9, EphA5(h) (Homo sapiens, UniProt P54756); conditions: 100 nM
T9 construct: purchased Eurofins KinaseProfiler
Description: as §1

TYK2(h) = molecular target: T10, TYK2(h) (Homo sapiens, UniProt P29597); conditions: 100 nM
T10 construct: purchased Eurofins KinaseProfiler
Description: as §1

EphA4(h) = molecular target: T11, EphA4(h) (Homo sapiens, UniProt P54764); conditions: 100 nM
T11 construct: purchased Eurofins KinaseProfiler
Description: as §1

BTK(h) = molecular target: T12, BTK(h) (Homo sapiens, UniProt Q06187); conditions: 100 nM
T12 construct: purchased Eurofins KinaseProfiler
Description: as §1

Pim-3(h) = molecular target: T13, Pim-3(h) (Homo sapiens, UniProt Q86V86); conditions: 100 nM
T13 construct: purchased Eurofins KinaseProfiler
Description: as §1

MAPKAP-K2(h) = molecular target: T14, MAPKAP-K2(h) (Homo sapiens, UniProt P49137)
T14 construct: purchased Eurofins KinaseProfiler
Description: as §1

ATR/ATRIP(h) = molecular target: T15, ATR/ATRIP(h) (Homo sapiens, UniProt Q13535)
T15 construct: purchased Eurofins KinaseProfiler
Description: as §1

TAO2(h) = molecular target: T16, TAO2(h) (Homo sapiens, UniProt Q9UL54)
T16 construct: purchased Eurofins KinaseProfiler
Description: as §1

PAK5(h) = molecular target: T17, PAK5(h) (Homo sapiens, UniProt Q9P286)
T17 construct: purchased Eurofins KinaseProfiler
Description: as §1

Lck(h) = molecular target: T18, Lck(h) (Homo sapiens, UniProt P06239)
T18 construct: purchased Eurofins KinaseProfiler
T18 sequence (P06239 whole entry): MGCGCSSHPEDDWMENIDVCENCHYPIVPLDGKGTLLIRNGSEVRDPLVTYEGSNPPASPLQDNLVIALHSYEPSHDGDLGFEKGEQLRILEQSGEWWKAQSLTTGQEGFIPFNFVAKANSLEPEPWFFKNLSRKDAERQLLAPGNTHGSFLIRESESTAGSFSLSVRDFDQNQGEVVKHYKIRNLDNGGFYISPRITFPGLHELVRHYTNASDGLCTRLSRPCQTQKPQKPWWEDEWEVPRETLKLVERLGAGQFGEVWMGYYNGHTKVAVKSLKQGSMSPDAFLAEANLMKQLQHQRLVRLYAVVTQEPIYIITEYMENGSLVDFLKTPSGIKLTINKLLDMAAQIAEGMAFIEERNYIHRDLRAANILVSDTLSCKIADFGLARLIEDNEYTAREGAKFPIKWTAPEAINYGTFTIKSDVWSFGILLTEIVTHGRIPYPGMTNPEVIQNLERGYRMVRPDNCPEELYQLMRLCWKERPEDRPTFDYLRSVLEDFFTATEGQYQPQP
Description: as §1

STK25(h) = molecular target: T19, STK25(h) (Homo sapiens, UniProt O00506)
T19 construct: purchased Eurofins KinaseProfiler
Description: as §1

TAO1(h) = molecular target: T20, TAO1(h) (Homo sapiens, UniProt Q7L7X3)
T20 construct: purchased Eurofins KinaseProfiler
Description: as §1

TAO3(h) = molecular target: T21, TAO3(h) (Homo sapiens, UniProt Q9H2K8)
T21 construct: purchased Eurofins KinaseProfiler
T21 sequence (Q9H2K8 whole entry): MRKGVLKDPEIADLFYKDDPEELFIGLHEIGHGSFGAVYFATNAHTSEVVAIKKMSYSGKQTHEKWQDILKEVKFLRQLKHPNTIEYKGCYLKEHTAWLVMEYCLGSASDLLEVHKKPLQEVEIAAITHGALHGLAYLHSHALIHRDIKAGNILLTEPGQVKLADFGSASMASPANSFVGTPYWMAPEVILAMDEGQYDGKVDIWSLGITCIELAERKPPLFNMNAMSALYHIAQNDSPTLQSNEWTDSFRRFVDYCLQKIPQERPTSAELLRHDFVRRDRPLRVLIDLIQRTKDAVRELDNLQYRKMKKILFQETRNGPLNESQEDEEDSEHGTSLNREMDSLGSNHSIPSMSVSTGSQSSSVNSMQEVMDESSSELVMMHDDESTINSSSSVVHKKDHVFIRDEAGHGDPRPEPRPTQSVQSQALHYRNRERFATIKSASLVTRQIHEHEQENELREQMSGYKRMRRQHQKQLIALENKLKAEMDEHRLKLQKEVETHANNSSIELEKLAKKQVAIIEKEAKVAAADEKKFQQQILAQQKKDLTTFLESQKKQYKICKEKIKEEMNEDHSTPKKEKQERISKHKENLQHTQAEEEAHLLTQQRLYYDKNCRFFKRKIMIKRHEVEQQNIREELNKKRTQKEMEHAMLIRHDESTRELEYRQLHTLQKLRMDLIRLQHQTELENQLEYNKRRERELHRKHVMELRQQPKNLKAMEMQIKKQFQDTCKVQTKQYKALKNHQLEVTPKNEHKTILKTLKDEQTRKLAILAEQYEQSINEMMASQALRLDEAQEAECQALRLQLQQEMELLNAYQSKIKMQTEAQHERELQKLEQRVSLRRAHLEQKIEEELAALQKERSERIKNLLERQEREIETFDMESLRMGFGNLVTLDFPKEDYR
Description: as §1

CDK2/cyclinE(h) = molecular target: T22, CDK2/cyclinE(h) (Homo sapiens, UniProt P24941)
T22 construct: purchased Eurofins KinaseProfiler
Description: as §1

MST4(h) = molecular target: T23, MST4(h) (Homo sapiens, UniProt Q9P289)
T23 construct: purchased Eurofins KinaseProfiler
Description: as §1

CDK18/cyclinY(h) = molecular target: T24, CDK18/cyclinY(h) (Homo sapiens, UniProt Q07002)
T24 construct: purchased Eurofins KinaseProfiler
Description: as §1

LKB1(h) = molecular target: T25, LKB1(h) (Homo sapiens, UniProt Q15831)
T25 construct: purchased Eurofins KinaseProfiler
Description: as §1

HIPK2(h) = molecular target: T26, HIPK2(h) (Homo sapiens, UniProt Q9H2X6)
T26 construct: purchased Eurofins KinaseProfiler
T26 sequence (Q9H2X6 whole entry): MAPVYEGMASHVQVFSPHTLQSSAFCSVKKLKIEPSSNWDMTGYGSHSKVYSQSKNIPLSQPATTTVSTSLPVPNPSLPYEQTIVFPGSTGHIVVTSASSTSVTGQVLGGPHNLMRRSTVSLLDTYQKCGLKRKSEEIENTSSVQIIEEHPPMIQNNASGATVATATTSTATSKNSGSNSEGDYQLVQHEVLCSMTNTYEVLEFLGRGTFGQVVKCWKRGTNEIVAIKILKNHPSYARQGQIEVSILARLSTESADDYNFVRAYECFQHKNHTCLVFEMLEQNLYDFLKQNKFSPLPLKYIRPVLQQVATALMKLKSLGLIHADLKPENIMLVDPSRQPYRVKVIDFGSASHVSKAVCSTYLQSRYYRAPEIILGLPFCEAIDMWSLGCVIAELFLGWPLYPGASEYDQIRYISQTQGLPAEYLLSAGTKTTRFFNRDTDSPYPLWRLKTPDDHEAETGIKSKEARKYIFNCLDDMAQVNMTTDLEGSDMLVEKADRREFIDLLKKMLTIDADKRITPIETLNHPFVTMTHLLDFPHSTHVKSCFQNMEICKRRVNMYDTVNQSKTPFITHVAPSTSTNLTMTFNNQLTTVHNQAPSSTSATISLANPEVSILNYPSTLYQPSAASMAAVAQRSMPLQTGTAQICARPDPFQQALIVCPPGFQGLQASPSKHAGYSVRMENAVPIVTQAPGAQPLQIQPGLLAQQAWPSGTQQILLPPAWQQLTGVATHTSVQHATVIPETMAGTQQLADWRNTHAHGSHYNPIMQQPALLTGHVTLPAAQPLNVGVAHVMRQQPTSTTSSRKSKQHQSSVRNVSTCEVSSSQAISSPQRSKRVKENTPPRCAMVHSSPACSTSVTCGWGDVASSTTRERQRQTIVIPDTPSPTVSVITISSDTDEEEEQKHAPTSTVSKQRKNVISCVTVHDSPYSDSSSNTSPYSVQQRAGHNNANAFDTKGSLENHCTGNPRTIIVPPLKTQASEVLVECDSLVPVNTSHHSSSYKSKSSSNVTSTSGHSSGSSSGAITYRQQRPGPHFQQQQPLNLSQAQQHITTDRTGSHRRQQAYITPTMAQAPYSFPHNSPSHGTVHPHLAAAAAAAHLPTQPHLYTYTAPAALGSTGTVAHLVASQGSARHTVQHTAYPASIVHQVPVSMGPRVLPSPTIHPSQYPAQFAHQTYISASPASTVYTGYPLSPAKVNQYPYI
Description: as §1

CK1γ2(h) = molecular target: T27, CK1γ2(h) (Homo sapiens, UniProt P78368)
T27 construct: purchased Eurofins KinaseProfiler
Description: as §1

DDR2(h) = molecular target: T28, DDR2(h) (Homo sapiens, UniProt Q16832)
T28 construct: purchased Eurofins KinaseProfiler
T28 sequence (Q16832 22-855): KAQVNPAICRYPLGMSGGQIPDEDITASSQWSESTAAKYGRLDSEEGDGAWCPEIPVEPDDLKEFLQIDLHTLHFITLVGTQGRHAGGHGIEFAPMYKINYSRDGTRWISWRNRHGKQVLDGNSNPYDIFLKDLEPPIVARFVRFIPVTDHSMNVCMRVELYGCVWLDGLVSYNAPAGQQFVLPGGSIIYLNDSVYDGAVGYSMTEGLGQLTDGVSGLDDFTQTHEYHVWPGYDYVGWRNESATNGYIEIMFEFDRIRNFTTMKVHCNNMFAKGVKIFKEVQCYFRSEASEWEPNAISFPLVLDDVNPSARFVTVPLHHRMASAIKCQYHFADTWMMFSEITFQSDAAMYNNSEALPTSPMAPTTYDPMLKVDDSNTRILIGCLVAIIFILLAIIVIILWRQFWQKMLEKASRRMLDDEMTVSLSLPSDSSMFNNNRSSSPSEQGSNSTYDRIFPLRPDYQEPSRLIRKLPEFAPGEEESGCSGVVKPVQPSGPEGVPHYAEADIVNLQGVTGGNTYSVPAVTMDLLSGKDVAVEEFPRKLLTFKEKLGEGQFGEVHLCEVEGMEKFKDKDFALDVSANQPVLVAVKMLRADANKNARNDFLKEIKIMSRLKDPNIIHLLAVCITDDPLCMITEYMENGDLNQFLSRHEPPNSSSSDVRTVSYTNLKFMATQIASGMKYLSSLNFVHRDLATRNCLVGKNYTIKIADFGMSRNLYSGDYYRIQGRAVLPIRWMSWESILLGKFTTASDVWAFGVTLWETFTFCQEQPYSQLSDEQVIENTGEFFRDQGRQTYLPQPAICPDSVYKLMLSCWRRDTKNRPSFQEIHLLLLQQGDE
Description: as §1

DYRK2(h) = molecular target: T29, DYRK2(h) (Homo sapiens, UniProt Q92630)
T29 construct: purchased Eurofins KinaseProfiler
Description: as §1

CK2(h) = molecular target: T30, CK2(h) (Homo sapiens, UniProt P68400)
T30 construct: purchased Eurofins KinaseProfiler
Description: as §1

EGFR(L858R)(h) = molecular target: T31, EGFR(L858R)(h) (Homo sapiens, UniProt P00533, L858R)
T31 construct: purchased Eurofins KinaseProfiler
Description: as §1

CaMKIIβ(h) = molecular target: T32, CaMKIIβ(h) (Homo sapiens, UniProt Q13554)
T32 construct: purchased Eurofins KinaseProfiler
Description: as §1

Aurora-A(h) = molecular target: T33, Aurora-A(h) (Homo sapiens, UniProt O14965)
T33 construct: purchased Eurofins KinaseProfiler
Description: as §1

DAPK1(h) = molecular target: T34, DAPK1(h) (Homo sapiens, UniProt P53355)
T34 construct: purchased Eurofins KinaseProfiler
Description: as §1

BRK(h) = molecular target: T35, BRK(h) (Homo sapiens, UniProt Q13882)
T35 construct: purchased Eurofins KinaseProfiler
Description: as §1

MELK(h) = molecular target: T36, MELK(h) (Homo sapiens, UniProt Q14680)
T36 construct: purchased Eurofins KinaseProfiler
T36 sequence (Q14680 whole entry): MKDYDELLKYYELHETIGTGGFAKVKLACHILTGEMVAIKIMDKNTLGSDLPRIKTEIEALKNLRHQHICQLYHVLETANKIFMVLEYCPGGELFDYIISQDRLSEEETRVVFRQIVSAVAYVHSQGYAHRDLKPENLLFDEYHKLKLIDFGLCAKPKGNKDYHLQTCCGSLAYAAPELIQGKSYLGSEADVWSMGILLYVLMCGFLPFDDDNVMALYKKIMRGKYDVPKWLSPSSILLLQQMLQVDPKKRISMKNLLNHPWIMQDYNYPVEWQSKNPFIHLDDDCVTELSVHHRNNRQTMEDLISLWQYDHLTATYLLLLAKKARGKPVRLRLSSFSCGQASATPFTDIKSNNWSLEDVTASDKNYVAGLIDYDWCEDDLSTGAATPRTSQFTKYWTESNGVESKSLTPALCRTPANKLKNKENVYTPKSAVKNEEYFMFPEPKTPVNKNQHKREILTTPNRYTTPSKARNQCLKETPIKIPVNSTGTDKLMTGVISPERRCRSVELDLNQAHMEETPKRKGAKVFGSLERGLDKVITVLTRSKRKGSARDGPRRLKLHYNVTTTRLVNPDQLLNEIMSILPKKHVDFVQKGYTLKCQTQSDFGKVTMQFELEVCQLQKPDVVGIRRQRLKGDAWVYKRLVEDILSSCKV
Description: as §1

EphB2(h) = molecular target: T37, EphB2(h) (Homo sapiens, UniProt P29323)
T37 construct: purchased Eurofins KinaseProfiler
Description: as §1

MKK4(m) = molecular target: T38, MKK4(m) (Mus musculus, UniProt P47809)
T38 construct: purchased Eurofins KinaseProfiler
T38 sequence (P47809 2-397 limits assumed): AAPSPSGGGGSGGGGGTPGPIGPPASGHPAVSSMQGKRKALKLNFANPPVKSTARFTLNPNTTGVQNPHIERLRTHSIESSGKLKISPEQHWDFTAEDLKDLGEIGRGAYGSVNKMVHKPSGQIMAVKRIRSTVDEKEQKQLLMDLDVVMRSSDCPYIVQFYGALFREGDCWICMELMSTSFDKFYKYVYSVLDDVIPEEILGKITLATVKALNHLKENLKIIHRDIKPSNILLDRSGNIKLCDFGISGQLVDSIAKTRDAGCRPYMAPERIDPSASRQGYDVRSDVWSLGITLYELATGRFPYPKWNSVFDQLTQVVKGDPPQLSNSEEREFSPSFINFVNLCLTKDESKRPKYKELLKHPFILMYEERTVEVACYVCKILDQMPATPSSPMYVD
Description: as §1

MKK6(h) = molecular target: T39, MKK6(h) (Homo sapiens, UniProt P52564)
T39 construct: purchased Eurofins KinaseProfiler
Description: as §1

Flt4(h) = molecular target: T40, Flt4(h) (Homo sapiens, UniProt P35916)
T40 construct: purchased Eurofins KinaseProfiler
Description: as §1

CK1γ3(h) = molecular target: T41, CK1γ3(h) (Homo sapiens, UniProt Q9Y6M4)
T41 construct: purchased Eurofins KinaseProfiler
T41 sequence (Q9Y6M4 whole entry): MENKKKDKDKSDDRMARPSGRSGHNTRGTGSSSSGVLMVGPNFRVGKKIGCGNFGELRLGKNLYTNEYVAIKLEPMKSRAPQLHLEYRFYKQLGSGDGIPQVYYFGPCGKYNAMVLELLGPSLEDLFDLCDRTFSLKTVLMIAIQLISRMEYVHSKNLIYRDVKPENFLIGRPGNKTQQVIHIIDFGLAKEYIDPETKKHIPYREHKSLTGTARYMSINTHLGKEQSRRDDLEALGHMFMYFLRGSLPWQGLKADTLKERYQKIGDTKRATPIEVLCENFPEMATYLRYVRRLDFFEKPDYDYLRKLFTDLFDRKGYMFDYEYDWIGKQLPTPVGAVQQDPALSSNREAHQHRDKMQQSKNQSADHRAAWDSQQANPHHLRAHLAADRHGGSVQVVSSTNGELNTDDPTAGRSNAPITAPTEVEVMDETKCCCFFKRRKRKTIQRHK
Description: as §1

FGFR2(h) = molecular target: T42, FGFR2(h) (Homo sapiens, UniProt P21802)
T42 construct: purchased Eurofins KinaseProfiler
Description: as §1

With `COc1ccc(CCc2cc(OC)c(OC)c(OC)c2)cc1O` [Erianin] the activity at 0.1 µM (Flt1(h)) was 117%, the activity at 0.1 µM (eEF-2K(h)) was 91% and the activity at 0.1 µM (CDK5/p25(h)) was 102%. It also gave an activity at 0.1 µM (Rsk1(h)) of 90%, an activity at 0.1 µM (EphB3(h)) of 95% and an activity at 0.1 µM (EphB1(h)) of 91%. The activity at 0.1 µM (CaMKIIδ(h)) was 103%, the activity at 0.1 µM (Wee1(h)) was 111% and the activity at 0.1 µM (EphA5(h)) was 108%. The activity at 0.1 µM (TYK2(h)) was 100%, the activity at 0.1 µM (EphA4(h)) was 93% and the activity at 0.1 µM (BTK(h)) was 104%. For the same compound, the activity at 0.1 µM (Pim-3(h)) was 91%.
In the case of `C=C1C(=O)[C@]23[C@H](O)[C@H]1CC[C@H]2[C@@]12CO[C@]3(O)[C@@H](O)[C@@H]1C(C)(C)CC[C@@H]2O` [Oridonin], the activity at 10 µM (MAPKAP-K2(h)) is reported as 85%, the activity at 10 µM (ATR/ATRIP(h)) is reported as 76% and the activity at 10 µM (TAO2(h)) is reported as 78%. For the same compound, the activity at 10 µM (PAK5(h)) was 98%, the activity at 10 µM (Lck(h)) was 89% and the activity at 10 µM (STK25(h)) was 105%. The activity at 10 µM (TAO1(h)) was 64%, the activity at 10 µM (TAO3(h)) was 66% and the activity at 10 µM (CDK2/cyclinE(h)) was 57%. For the same compound, the activity at 10 µM (MST4(h)) was 140% and the activity at 10 µM (CDK18/cyclinY(h)) was 65%.
`COc1cc2oc(-c3ccc(O)c(O)c3)cc(=O)c2c(O)c1OC` [Cirsiliol] showed an activity at 10 µM (LKB1(h)) of 96%, an activity at 10 µM (HIPK2(h)) of 100% and an activity at 10 µM (CK1γ2(h)) of 108%. It also gave an activity at 10 µM (DDR2(h)) of 106%, an activity at 10 µM (DYRK2(h)) of 97% and an activity at 10 µM (CK2(h)) of 84%. The activity at 10 µM (EGFR(L858R)(h)) was 107%, the activity at 10 µM (CaMKIIβ(h)) was 104% and the activity at 10 µM (Aurora-A(h)) was 124%. The activity at 10 µM (DAPK1(h)) was 103%, the activity at 10 µM (BRK(h)) was 105% and the activity at 10 µM (MELK(h)) was 100%. The activity at 10 µM (EphB2(h)) was 98%, the activity at 10 µM (MKK4(m)) was 101% and the activity at 10 µM (MKK6(h)) was 112%. The activity at 10 µM (Flt4(h)) was 87%, the activity at 10 µM (CK1γ3(h)) was 104% and the activity at 10 µM (FGFR2(h)) was 110%.
